Laboratory results from PubChem BioAssay (NCI).
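All cell lines were grown in 96-well plates and treated with compound for 48 hours. The concentration for 50% growth inhibition is given as GI50. TGI: total growth inhibition.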

Experiments:
Test in all cases: NCI anticancer screen, dose series, 48 h
HOP-62 NSCLC = tested on: HOP-62 NSCLC
NCI-H226 lung = tested on: NCI-H226 lung
CAKI-1 renal = tested on: CAKI-1 renal
UO-31 renal = tested on: UO-31 renal
HCT-15 colon = tested on: HCT-15 colon
HT29 colon = tested on: HT29 colon
U251 CNS = tested on: U251 CNS
OVCAR-5 ovarian = tested on: OVCAR-5 ovarian
KM12 colon = tested on: KM12 colon
A498 renal = tested on: A498 renal

Row | SMILES | TGI (HOP-62 NSCLC) | TGI (NCI-H226 lung) | TGI (CAKI-1 renal) | TGI (UO-31 renal) | TGI (HCT-15 colon) | TGI (HT29 colon) | TGI (U251 CNS) | TGI (OVCAR-5 ovarian) | TGI (KM12 colon) | TGI (A498 renal) | GI50 (HOP-62 NSCLC) | GI50 (NCI-H226 lung) | GI50 (CAKI-1 renal) | GI50 (UO-31 renal) | GI50 (HCT-15 colon) | GI50 (KM12 colon) | GI50 (HT29 colon) | GI50 (U251 CNS) | GI50 (A498 renal) | GI50 (OVCAR-5 ovarian)
1 | CN1C[C@H]2[C@@H](C1=O)[C@H](c1ccccc1)ON2C | > 100 µM | > 100 µM | > 100 µM | > 100 µM | > 100 µM | > 100 µM | > 100 µM | > 100 µM |  |  |  |  |  |  |  |  |  |  |  | 
2 | CC(=O)O[C@H]1C=CC(=O)C(C)CC1C (some centres undefined) | > 100 µM | > 100 µM | > 100 µM | > 100 µM |  | > 100 µM | > 100 µM | > 100 µM | > 100 µM | > 100 µM |  |  |  |  |  |  |  |  |  | 
3 | COc1ccc(-c2nn(-c3cccc(NC(=O)Nc4ccccc4)c3)cc2-c2ccncc2)cc1Cl | 9.13 µM | 5.81 µM | 9.35 µM | 4.02 µM | 4.98 µM | 4.78 µM | 4.91 µM | 8.79 µM | 4.89 µM | 3.28 µM | 3120 nM | 2150 nM | 2970 nM | 1500 nM | 1960 nM | 2250 nM | 2190 nM | 1990 nM | 1170 nM | 2500 nM
4 | Fc1ccc(-c2nn3c(-c4cc(C(F)(F)F)cc(C(F)(F)F)c4)nnc3s2)cc1 | 3.35 µM | > 50 µM |  | > 50 µM | > 50 µM | > 50 µM |  | > 50 µM | > 50 µM |  | 1200 nM | 1490 nM |  | 1320 nM | > 50000 nM | > 50000 nM | > 50000 nM |  |  | > 50000 nM
5 | C=C1C(=O)O[C@@H]2[C@H]1CCC(C)=C1C=CC(=O)[C@]12C |  | 43.4 µM | 33.2 µM | 28.7 µM |  | 24.2 µM | 54 µM | 31.8 µM | 31.4 µM |  |  |  |  |  |  |  |  |  |  | 
6 | CC(=O)C=NCC(=O)O | > 100 µM | > 100 µM | > 100 µM |  | > 100 µM | > 100 µM | > 100 µM | > 100 µM | > 100 µM | > 100 µM |  |  |  |  |  |  |  |  |  | 
7 | O=C(Nc1ccc(Sc2ccc(N=Nc3c(O)c(S(=O)(=O)O)cc4cc(S(=O)(=O)O)ccc34)cc2)cc1)c1ccc(N=Nc2c(O)ccc3c(S(=O)(=O)O)cc(S(=O)(=O)O)cc23)cc1 | > 100 µM | > 100 µM | > 100 µM | > 100 µM | > 100 µM | > 100 µM | > 100 µM | > 100 µM | > 100 µM | > 100 µM |  |  |  |  |  |  |  |  |  | 
8 | c1ccc(N=c2nc(N3CCOCC3)ss2)cc1 | > 100 µM | > 100 µM | 34.5 µM | 50.2 µM | 29 µM | 35.4 µM | 28.6 µM | 52.1 µM | 32.5 µM | 79.5 µM |  |  |  |  |  |  |  |  |  | 
9 | N#CC(Nc1cccc(C(F)(F)F)c1)c1ccccc1C(F)(F)F (centres undefined) | 10.8 µM | 30.4 µM | 9.09 µM | 31.9 µM | 17.8 µM | 28 µM | 30.5 µM | 28.4 µM | 19.9 µM | 34.2 µM |  |  |  |  |  |  |  |  |  | 
10 | CCC(=O)NC(Nc1cccc(F)c1)(C(F)(F)F)C(F)(F)F |  |  | 93.9 µM | > 100 µM | > 100 µM | > 100 µM | > 100 µM | > 100 µM | > 100 µM |  |  |  |  |  |  |  |  |  |  | 
